Columns and labels:
[1] = tested on: uninephrectomized db/db mice; experiment: Diabetic nephropathy in uninephrectomized db/db mice, 8 week treatment starting 4 weeks after the uninephrectomy; type: in vivo; settings: 8 weeks starting 4 weeks after uninephrectomy
Description: Male 5-week-old BKS.Cg-+Lepr^db/+Lepr^db (db/db) mice were purchased from CLEA Japan, Inc. All mice were fed with a standard diet (CE-2, CLEA Japan, Inc.) and tap water ad libitum.
Compound A was obtained from Takeda GmbH, Konstanz, Germany. Irbesartan was purchased from LKT Laboratories, Inc (USA).
In 6 week old male db/db mice an unilateral nephrectomy was performed. Under the anesthesia with isoflurane inhalation, the right kidney was removed from the mice. After 4-week recovery period, blood samples were obtained by the puncture of facial vein and blood level of glycosylated hemoglobin (GHb) was measured by automated HPLC-based GHb analyzer (HLC-723 G8, TOSOH, Japan). After the separation of plasma samples by centrifugation, also plasma levels of glucose (PG) were measured by Autoanalyzer 7180 (Hitachi, Japan). Urine samples were collected for a 8 h time-period using metabolic cages and urine creatinine level was measured by Autoanalyzer 7180. After desaltation of urine samples with PD MiniTrap G-25 column (GE healthcare, UK), urinary levels of albumin were measured by ELISA, and urinary albumin/creatinine ratio (UACR) was calculated.
Compound A (1, 3 and 10 mg/kg, QD), roflumilast (3 mg/kg, QD) and irbesartan (50 mg/kg, QD) were suspended in 0.5% methyl cellulose solution and orally administered to mice for 8 weeks starting 4 weeks after the uninephrectomy.
At the end of the 8 weeks once daily administration blood, plasma and urine samples were obtained according to the same methods as described above. GHb, PG, urinary creatinine and albumin were measured and UACR was calculated. Body weight (BW) was measured every week during the treatment.
For evaluation of the effects of Compound A, statistical differences between vehicle- and Compound A treated groups were analyzed with two-tailed Williams' test for PG and BW and two-tailed Shirley-Williams' test for UACR and GHb. The P-values less than 0.05 were considered statistically significant in two-tailed Williams' test or Shirley-Williams' test.
For roflumilast and irbesartan, statistical differences between vehicle- and compounds-treated groups were analyzed with Student's t-test for GHb, PG and BW and Welch test for UACR. The P-values less than 0.05 were considered statistically significant in Student's t-test and Welch test.

[2] = tested on: type 1 collagen α1 chain mRNA; experiment: TGF-β-induced mRNA expression of type 1 collagen α1 chain in human mesangial cells; type: cell-based; settings: in the presence of forskolin 1 μM, TGF-β 3 ng/mL, 24 h
Description: Human mesangial cells were purchased from DS Pharma Biomedical (US). Compound A was obtained from Takeda GmbH, Konstanz, Germany. Forskolin and dimethyl sulfoxide (DMSO) were purchased from Wako Pure Chemical Industries, Ltd (Japan). Recombinant human TGF-β was purchased from R&D systems (USA).
On day 0, human mesangial cells were seeded at a cell density of 2×10^5 cells/well in CSC complete medium (Cell Systems, USA) on type 1 collagen-coated 24-well plate (AGC TECHNO GLASS Co. Ltd., Japan) in an atmosphere of 95% air and 5% CO2 at 37° C. On day 1, the cells were serum starved with CMC medium which is not containing serum and growth factors. On day 2, Compound A at final concentrations of 0.001, 0.01, 0.1, 1 and 10 μM or DMSO (control) was added to the culture medium. […] For the measurement of mRNA levels of type 1 collagen α1 chain and fibronectin, total RNA isolated at 24 hours after forskolin/TGF-β stimulation was used. mRNA expression levels were measured by quantitative real-time RT-PCR methods with TaqMan gene expression master mix and ABI PRISM 9700 (Life Technologies, USA) with target mRNA specific primer and probe sets [Human connective tissue growth factor (Hs1026927_g1); Human plasminogen activator inhibitor-1 (Hs00167155_m1); Human type 1 collagenal chain (Hs00164004_m1); Human fibronectin (HS00365052_m1); Humanglyceraldehyde 3-phosphate dehydrogenase (HS2758991_g1)]. […]

In the case of `CCOc1cc2c(cc1OC)C(c1ccc(=O)n(C)c1)=N[C@@H]1CC[C@@H](O)C[C@H]21` [Compound A, 5-((2R,4aR,10bR)-9-Ethoxy-2-hydroxy-8-methoxy-1,2,3,4,4a,10b-hexahydro-phenanthridin-6-yl)1-methyl-1H-pyridin-2-one], the “effect on increase of urinary albumin/creatinine ratio (UACR)” value ([1]; 1 mg/kg QD oral) is reported as “significantly suppressed the increase of UACR”, the “effect on increase of urinary albumin/creatinine ratio (UACR)” value ([1]; 3 mg/kg QD oral) is reported as “almost completely inhibited the increase of UACR” and the “effect on body weight” value ([1]; 10 mg/kg QD oral) is reported as “slightly, but statistically significantly, suppressed the increase of body weight”. For the same molecule, the “effect on increase of urinary albumin/creatinine ratio (UACR)” value ([1]; 10 mg/kg QD oral) was “almost completely inhibited the increase of UACR”, the “effect on blood level of glycosylated hemoglobin (GHb)” value ([1]; 1, 3 and 10 mg/kg QD oral) was “significantly inhibited the elevation of GHb and PG in a dose-dependent manner” and the “effect on plasma levels of glucose (PG)” value ([1]; 1, 3 and 10 mg/kg QD oral) was “significantly inhibited the elevation of GHb and PG in a dose-dependent manner”. The “concentration at which the inhibitory effect on mRNA expression of type 1 collagen α1 chain was further enhanced” value [2] was ≥ 0.1 µM.

Source: patent US20200179369A1, “TREATMENT OF DIABETIC NEPHROPATHY” (TAKEDA GMBH, priority 2015, published 2020)
